Test systems include OVCAR-3; UO-31; HOP-62; COLO 205; A549; SF-295; 786-0; CCRF-CEM; KM12; LOX IMVI; NCI-H226; NCI-H460; NCI-H23; MOLT-4; OVCAR-5; EKVX; SK-MEL-2.
Assay in all cases: growth of human tumour cells (NCI), 48 h

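Following 48 hours of exposure in 96-well plates, responses at five concentrations were used to interpolate endpoints linearly. Abbreviation: GI50, concentration required for 50% inhibition of growth.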 Active and inactive are the calls of the source. No stated cut-off is given here; in the data, active = GI50 up to about 1.1 µM and inactive = higher. Some results are limits rather than exact numbers.

For `COC(=O)C1Cc2c([nH]c3ccccc23)C=N1` (configuration not stated), the GI50 in the assay on OVCAR-3, in the assay with UO-31, in the assay on HOP-62, in the assay on COLO 205, in the assay with A549 and with SF-295 was > 100 µM (inactive) each time. Moreover, the GI50 in the assay on 786-0 is > 100 µM (inactive); in the assay on CCRF-CEM, > 100 µM (inactive); with KM12 it was 94.2 µM (inactive); in the assay with LOX IMVI it was 51.8 µM (inactive); in the assay with NCI-H226, > 100 µM (inactive); in the assay with NCI-H460, > 100 µM (inactive). The GI50 in the assay with NCI-H23, with MOLT-4, in the assay with OVCAR-5 and in the assay on EKVX was > 100 µM (inactive) in each case.
With `C=CC1(C)CCC2=C(CCC3C(C)(C(=O)OC)CCCC23C)C1=O` (configuration not stated), the GI50 in the assay with OVCAR-3 is 19.7 µM (inactive); in the assay on UO-31 it was 20.8 µM (inactive); in the assay with HOP-62, 16.8 µM (inactive); with COLO 205, 19.1 µM (inactive); with SF-295, 27 µM (inactive); with CCRF-CEM, 21.4 µM (inactive). Also, the GI50 was 17.4 µM (inactive) in the assay on KM12; 18.5 µM (inactive) in the assay on LOX IMVI; 23.8 µM (inactive) with NCI-H226; 18.3 µM (inactive) in the assay with NCI-H460; 19.5 µM (inactive) with NCI-H23; 17.9 µM (inactive) with SK-MEL-2. For the same compound, the GI50 with OVCAR-5 is 16 µM (inactive); with EKVX, 18.7 µM (inactive).
On to `NC1C(O)C(O)C(CO)OC1n1cc(F)c(=O)[nH]c1=O` (configuration not stated), for which the GI50 in the assay on COLO 205, in the assay on A549, in the assay with SF-295, in the assay with CCRF-CEM, with KM12 and in the assay on LOX IMVI was > 100 µM (inactive) each time. Further, the GI50 with NCI-H226, in the assay on NCI-H460, in the assay on NCI-H23, in the assay on SK-MEL-2, in the assay with MOLT-4 and with OVCAR-5 was > 100 µM (inactive) each time.
As for `Cc1c2ccncc2c(C)c2c1[nH]c1ccccc12` [ELLIPTECINE], the GI50 was 0.322 µM (active) with OVCAR-3; 1.95 µM (inactive) with UO-31; 0.818 µM (active) with HOP-62; 0.502 µM (active) in the assay on COLO 205; 0.504 µM (active) with A549; 0.805 µM (active) in the assay with SF-295. The GI50 in the assay on CCRF-CEM was 0.411 µM (active); in the assay with KM12 it was 0.473 µM (active); in the assay with LOX IMVI, 0.536 µM (active); with NCI-H226, 1.42 µM (inactive); with NCI-H460, 0.15 µM (active); with NCI-H23, 0.656 µM (active). For the same compound, the GI50 is 2.77 µM (inactive) in the assay with SK-MEL-2, 0.256 µM (active) in the assay with MOLT-4, 1.46 µM (inactive) in the assay on OVCAR-5 and 0.933 µM (active) with EKVX.
Consider `CC(C)CCCC(C)[C@H]1CCC(C2C[C@@H](O)[C@@H]3CC(O)[C@@H](O)C[C@]3(CO)C2=O)[C@]1(C)CCO` (some centres not stated), for which the GI50 in the assay with OVCAR-3 is 21.4 µM (inactive); in the assay with UO-31 it was 23 µM (inactive); in the assay with HOP-62, 23.9 µM (inactive); in the assay on COLO 205 it was 20 µM (inactive); in the assay with A549, 34 µM (inactive); in the assay on SF-295 it was 20.4 µM (inactive). Also, the GI50 with CCRF-CEM is 17 µM (inactive); with KM12, 14.3 µM (inactive); with LOX IMVI, 20.9 µM (inactive); in the assay with NCI-H226, 30.7 µM (inactive); in the assay on NCI-H460 it was 21.8 µM (inactive); with NCI-H23 it was 36.1 µM (inactive). Moreover, the GI50 with SK-MEL-2 was 22.3 µM (inactive); with MOLT-4, 0.491 µM (active); in the assay with OVCAR-5 it was 23.2 µM (inactive); in the assay on EKVX, > 57.8 µM (inactive).
As for `O=C1C(=C2CCCC2)CCC1CN1CCCCC1` (configuration not stated), the GI50 in the assay on OVCAR-3 was 16.9 µM (inactive); in the assay on UO-31, > 100 µM (inactive); with COLO 205 it was 25.7 µM (inactive); with A549, > 100 µM (inactive); in the assay on SF-295 it was > 100 µM (inactive); with 786-0, 13.6 µM (inactive). For the same compound, the GI50 in the assay on CCRF-CEM was 14.3 µM (inactive); in the assay on KM12, 18.6 µM (inactive); in the assay with NCI-H460, > 10 µM (inactive); in the assay on NCI-H23, 18.7 µM (inactive); with SK-MEL-2, 16.5 µM (inactive); in the assay on MOLT-4 it was 18.5 µM (inactive). For the same compound, the GI50 in the assay with OVCAR-5 was 19.8 µM (inactive); with EKVX, 18.8 µM (inactive).
`CC(C)c1oc(=O)cc2c1C(O)C1OC(=O)C3(C)C(O)C4OC4C2(C)C13` (configuration not stated) [NAGILACTONE]: the GI50 with OVCAR-3 was 1.41 µM (inactive); in the assay with UO-31, 4.52 µM (inactive); with HOP-62, 2.15 µM (inactive); with COLO 205, 1.13 µM (inactive); in the assay on A549 it was 2.44 µM (inactive); with SF-295 it was 1.65 µM (inactive). Besides, the GI50 is 0.817 µM (active) in the assay with CCRF-CEM; 1.72 µM (inactive) with KM12; 0.653 µM (active) with LOX IMVI; 2.16 µM (inactive) in the assay on NCI-H226; 0.733 µM (active) with NCI-H460; 1.36 µM (inactive) in the assay with NCI-H23. Moreover, the GI50 with SK-MEL-2 was 2.16 µM (inactive); in the assay on MOLT-4, 0.83 µM (active); with OVCAR-5, 9.48 µM (inactive); with EKVX, 2.19 µM (inactive).
As for `COC(=O)C1=C(C)N2CCOC2CC1c1ccccc1` (configuration not stated), the GI50 in the assay with OVCAR-3 is 49.5 µM (inactive); in the assay with UO-31, > 100 µM (inactive); with HOP-62 it was > 100 µM (inactive); in the assay with COLO 205, > 100 µM (inactive); with A549, > 100 µM (inactive); in the assay on SF-295, > 100 µM (inactive). Besides, the GI50 in the assay on CCRF-CEM is 45.4 µM (inactive); with KM12, > 100 µM (inactive); with NCI-H226 it was > 100 µM (inactive); with NCI-H460, > 100 µM (inactive); in the assay on NCI-H23, 84.1 µM (inactive); with SK-MEL-2 it was > 100 µM (inactive). Further, the GI50 is 77.4 µM (inactive) with MOLT-4 and > 100 µM (inactive) in the assay with EKVX.
Consider `CCn1c(=O)c(C(=O)O)c(Cl)c2cc3c(cc21)OCO3`, for which the GI50 with OVCAR-3, in the assay on UO-31, with HOP-62, in the assay on COLO 205, in the assay with A549 and in the assay on SF-295 was > 100 µM (inactive) in each case. Besides, the GI50 with CCRF-CEM, with KM12, in the assay on LOX IMVI, with NCI-H226, in the assay with NCI-H460 and in the assay with NCI-H23 was > 100 µM (inactive) in each case. For the same compound, the GI50 with SK-MEL-2, in the assay with MOLT-4, in the assay on OVCAR-5 and in the assay on EKVX was > 100 µM (inactive) throughout.
As for `CN1Cc2cc3c(cc2-c2ccccc21)OCO3`, the GI50 in the assay on OVCAR-3, with UO-31, in the assay with COLO 205, in the assay on A549, in the assay with SF-295 and with 786-0 was > 100 µM (inactive) in each case. Moreover, the GI50 in the assay on CCRF-CEM, with KM12, in the assay with LOX IMVI, in the assay on NCI-H460, in the assay with NCI-H23 and in the assay on SK-MEL-2 was > 100 µM (inactive) in each case. For the same compound, the GI50 in the assay with MOLT-4, with OVCAR-5 and in the assay on EKVX was > 100 µM (inactive) in each case.
Turning to `OCC1OC(n2cnc3c2NC=NC[C@H]3O)C(O)C1O` (some centres not stated), the GI50 with OVCAR-3 is > 450 µM (inactive); in the assay on UO-31, 282 µM (inactive); in the assay on HOP-62, > 337 µM (inactive); in the assay with COLO 205, > 450 µM (inactive); in the assay on A549, 396 µM (inactive); with SF-295, > 450 µM (inactive). Further, the GI50 was 172 µM (inactive) in the assay with CCRF-CEM; > 450 µM (inactive) with KM12; 170 µM (inactive) in the assay with LOX IMVI; 173 µM (inactive) in the assay with NCI-H226; 164 µM (inactive) in the assay on NCI-H460; 445 µM (inactive) in the assay with NCI-H23. The GI50 in the assay with SK-MEL-2 was 339 µM (inactive); with MOLT-4, 318 µM (inactive); in the assay with OVCAR-5 it was > 450 µM (inactive); in the assay with EKVX it was > 450 µM (inactive).
Consider `O=C(CC1Sc2ccccc2NC1=O)Nc1ccc(Cl)cc1` (configuration not stated), for which the GI50 with OVCAR-3 was > 100 µM (inactive); in the assay on UO-31, > 100 µM (inactive); with HOP-62, > 100 µM (inactive); in the assay with COLO 205 it was > 100 µM (inactive); in the assay with A549, 91.8 µM (inactive); with SF-295, > 100 µM (inactive). Moreover, the GI50 in the assay with CCRF-CEM was > 100 µM (inactive); in the assay with KM12 it was > 100 µM (inactive); with LOX IMVI, > 100 µM (inactive); in the assay on NCI-H226, > 100 µM (inactive); in the assay on NCI-H460, > 100 µM (inactive); in the assay with NCI-H23 it was 46.2 µM (inactive). Besides, the GI50 in the assay on SK-MEL-2, with MOLT-4, with OVCAR-5 and in the assay with EKVX was > 100 µM (inactive) throughout.
On to `CC1CC(C)(O)C2C3(C)CCCC2(COC3=O)C12CCC1(CCOC1=O)O2` (configuration not stated), for which the GI50 with OVCAR-3 was > 250 µM (inactive); in the assay on UO-31, > 238 µM (inactive); in the assay with HOP-62, > 250 µM (inactive); in the assay on COLO 205 it was > 250 µM (inactive); in the assay with A549, > 250 µM (inactive); with SF-295, > 250 µM (inactive). Also, the GI50 in the assay with CCRF-CEM, with KM12, in the assay with LOX IMVI, in the assay on NCI-H226, in the assay on NCI-H460 and with NCI-H23 was > 250 µM (inactive) in each case. Moreover, the GI50 in the assay on SK-MEL-2, with MOLT-4, in the assay with OVCAR-5 and in the assay with EKVX was > 250 µM (inactive) each time.

The values are drawn from ChEMBL document CHEMBL1201862, “PubChem BioAssay data set” (2004).
